In patent US12527741B2, “Modular dendron micelles for treatment of pulmonary diseases related to fibrosis and viral infection including COVID-19” (priority 2021, dated 2026):
Where no end group is shown, it is not given here.

Experiments:
[1] = system: fibroblast contractility; assay type: cell-based; conditions: TGFβ-induced
[2] = system: BRD isoforms; assay type: binding; conditions: data not shown
[3] = system: TGFβ-induced NOX4/SM22α/FN1 expression; assay: TGFβ-induced myofibroblast transition, Q-RT-PCR of NOX4, SM22α and FN1; assay type: cell-based
[4] = system: idiopathic pulmonary fibrosis; conditions: IPF patients; cited from earlier work
[5] = Drug loading and encapsulation efficiency of PCL14K-DMs; assay type: physicochemical; conditions: initial loading 20% wt, Dialysis
[6] = Hydrophobicity (log P) of BRD4 inhibitors; assay type: physicochemical
[7] = target: BRD3 (Homo sapiens, UniProt Q15059); assay: Binding affinity to BRD3
BRD3, sequence (Q15059 whole entry, species assumed, the tested form may be a part, canonical isoform): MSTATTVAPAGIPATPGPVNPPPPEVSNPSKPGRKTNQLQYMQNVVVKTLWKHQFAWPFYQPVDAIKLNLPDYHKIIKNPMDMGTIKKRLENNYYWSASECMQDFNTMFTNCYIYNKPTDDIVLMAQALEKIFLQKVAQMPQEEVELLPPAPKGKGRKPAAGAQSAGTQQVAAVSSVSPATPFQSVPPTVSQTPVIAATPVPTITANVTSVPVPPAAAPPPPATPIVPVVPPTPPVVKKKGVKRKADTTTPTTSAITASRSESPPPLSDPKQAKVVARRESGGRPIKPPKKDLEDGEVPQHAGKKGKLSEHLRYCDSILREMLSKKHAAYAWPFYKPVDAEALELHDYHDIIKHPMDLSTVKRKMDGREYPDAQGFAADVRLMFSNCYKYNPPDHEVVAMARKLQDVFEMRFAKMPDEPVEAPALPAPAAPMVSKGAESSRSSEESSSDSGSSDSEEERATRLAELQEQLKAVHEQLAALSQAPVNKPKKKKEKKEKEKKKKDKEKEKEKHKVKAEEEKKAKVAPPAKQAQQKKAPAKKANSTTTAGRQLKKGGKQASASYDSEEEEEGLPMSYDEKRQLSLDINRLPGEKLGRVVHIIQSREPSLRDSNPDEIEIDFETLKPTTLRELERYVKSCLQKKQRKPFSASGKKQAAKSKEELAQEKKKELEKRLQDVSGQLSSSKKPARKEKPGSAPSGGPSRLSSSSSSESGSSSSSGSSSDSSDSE
Text: (§1) BRD4 is a member of the bromodomain and extraterminal (BET) protein family, containing two conserved bromodomains (BD). The BD is a high-affinity binding pocket for BRD4 binding to acetylated Lys residues on histones and transcription factors critical for histone acetyltransferase (HAT) activity. Small molecule BRD4 inhibitors that interact with the BRD4 BD inhibit BRD4 function by displacing BRD4 from genome binding sites, disrupting coactivator binding, and inhibiting its atypical HAT activity. A major limitation of pharmacological approaches to modifying BRD4 is that available inhibitors have poor selectivity for BRD isoforms. A third generation BRD4 inhibitor (BRD4i) with high selectivity for the BRD4 BD1 domain has been identified. This compound, ZL0591, binds with approximately 100 nM affinity to BRD4 BD1, but has 10× lower affinity for the BRD4 BD2 domain, and similarly has low affinity for BRD3.

[8] = target: BRD4 BD1 (Homo sapiens, UniProt O60885); assay: Binding affinity to BRD4 BD1
Text: as §1

[9] = target: BRD4 BD2 domain (Homo sapiens, UniProt O60885); assay: Binding affinity to BRD4 BD2
Text: as §1

[10] = system: Bleomycin-induced fibrosis; assay: Bleomycin-induced pulmonary fibrosis, therapeutic dosing; assay type: in vivo, mice
[11] = Intravenous half-life; assay type: in vivo
[12] = system: 7860 cells; assay: Binding to high PD-L1 expressing cells; assay type: cell-based; conditions: fluorescence
Text: (§2) (SEQ ID NO: 5), optimized from the literature.

[13] = target: PD-L1 (Homo sapiens, UniProt Q9NZQ7); conditions: SPR
PD-L1, sequence (Q9NZQ7 19-290): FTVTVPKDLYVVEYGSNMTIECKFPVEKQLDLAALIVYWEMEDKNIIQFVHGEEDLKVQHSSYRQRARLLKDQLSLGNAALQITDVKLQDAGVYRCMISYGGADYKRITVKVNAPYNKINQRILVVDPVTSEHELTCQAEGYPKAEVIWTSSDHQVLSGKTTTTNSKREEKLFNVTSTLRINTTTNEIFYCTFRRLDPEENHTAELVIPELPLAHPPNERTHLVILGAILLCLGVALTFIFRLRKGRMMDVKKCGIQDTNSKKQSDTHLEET

[14] = system: MCF-7 cells; assay: Binding to cells with low PD-L1 expression; assay type: cell-based
Text: as §2

## Cc1sc2c(c1C)C(c1ccc(Cl)cc1)=N[C@@H](CC(=O)OC(C)(C)C)c1nnc(C)n1-2 [JQ1]
[1]
  Contractility (retraction of collagen plugs): effectively inhibited
[2]
  Discrimination between BRD isoforms: no discrimination
[3]
  FN1 expression: effectively blocked
  NOX4 expression: effectively blocked
  SM22α expression: effectively blocked

## COC(=O)c1ccc2c(c1)NC(=O)/C2=C(\Nc1ccc(N(C)C(=O)CN2CCN(C)CC2)cc1)c1ccccc1 [Nintedanib, nintedanib]
[4]
  Decrease/loss of forced vital capacity (FVC): efficacy was shown

## COc1cc(OC)c2c(=O)cc(-c3cc(C)c(OC[C@H](O)CN4CCN(C)CC4)c(C)c3)oc2c1 [ZL0516]
[5]
  Drug Loading %: 0.70 ± 0.17%
  Encapsulation Efficiency %: 2.52 ± 0.17%
[6]
  log P: 2.89

## O=C(Nc1ccc(C(F)(F)F)cc1)Nc1ccc(S(=O)(=O)N2CCC[C@H]2CN2CCC(O)CC2)cc1 [ZL0591]
[7]
  Affinity for BRD3: low affinity
[8]
  Kd: ~100 nM
[9]
  Lower affinity for BRD4 BD2 domain relative to BD1: 10 ×
[10]; 10 mg/kg/dose systemic (IP), started 14 d after bleomycin, 14 d of treatment
  Pulmonary collagen content (hydroxyproline in total lung homogenates): significantly reduced
[10]; bleomycin- and BRD4 inhibitor-treated vs controls
  Blood oxygen saturation: increase
[10]; fixed lung sections
  Alveolar consolidation and fibrotic pattern (Massons Trichrome): substantially reduced
[10]; scored by independent pathologist
  Modified Ashcroft indices: reduction in Ashcroft indices was statistically significant
[10]; vs bleomycin treated only
  Lung density by microCT: reduction
[11]
  Intravenous T1/2: 11.8 h

## Cc1ccc(=O)n(-c2ccccc2)c1 [pirfenidone]
[4]
  Decrease/loss of forced vital capacity (FVC): slows
  Progression-free survival: improves

## G7-pPD1: PD-L1-binding peptide pPD-1 conjugated to G7 PAMAM dendrimers (HVVWHRESPSGQTDTLAA; also: conjugated to G7 PAMAM dendrimers, site not given here)
[12]
  Binding to PD-L1 expressing cells: selective binding
[12]; listed as dendrimer-pPD-1
  Binding to PD-L1 expressing cells: specific interaction
[13]
  KD compared with full antibody (aPD-L1): comparable
[14]
  Interaction with low PD-L1 expression cells: lack of observed interactions
